Reference: USRE39221E1, “Composition comprising a tramadol material and acetaminophen and its use” (priority 1991, dated 2006)
Read-outs that look alike come from different tables or passages of the source.

System: acetylcholine-induced abdominal constriction
Test: prevention of acetylcholine-induced abdominal constriction in mice (analgesic activity)
Type: in vivo, mice (male CD1)
Conditions: for ED50: Mus musculus, po, 0.5 h; for analgesia: 30 min
Protocol: Male CD1 mice (weighing from 18-24 g) were utilized in determining the analgesic effects associated with the compositions of the invention. The mice were all dosed orally with tramadol hydrochloride (calculated as the base), which was completely dissolved in distilled water, and acetaminophen (calculated as the base), which was completely dissolved in distilled water or in distilled water containing 2% by volume of Tween 80 containing 100% polysorbate 80. The dosing volume was 10 mL/kg.
The procedure used in detecting and comparing the analgesic activity of different classes of analgesia drugs for which there is a good correlation with human efficacy is the prevention of acetylcholine-induced abdominal constriction in mice (H. Collier et al., Br. J. Pharmacol., 32, 295 (1968)).
Mice, intubated with various doses of tramadol hydrochloride alone, acetaminophen alone, combined doses of tramadol hydrochloride and acetaminophen, or vehicle such as distilled water, or distilled water containing 2% by volume of Tween 80, were injected intraperitoneally with a challenge dose of acetylcholine bromide. The acetylcholine was completely dissolved in distilled water at a concentration of […] and injected at the rate of 0.20 mL/20 g. For scoring purposes an “abdominal constriction” was defined as a contraction of the abdominal musculature accompanied by arching of the back and extension of the limbs. The mice were observed 10 minutes for the presence or absence of the abdominal constriction response beginning immediately after receiving the acetylcholine dose, which was 30 minutes after receiving the oral administration of tramadol hydrochloride, acetaminophen, combined doses of tramadol hydrochloride and acetaminophen, or vehicle. Each mouse was used only once.
The analysis of possible superadditivity for the compositions at each fixed ratio was determined as disclosed by R. J. Tallarida et al., Life Sci., 45, 947 (1989). This procedure involved the determination of the total amount in the mixture that is required to produce a specified level of effect, such as 50% (ED50mix), and the corresponding total amount that would be expected under simple additivity (ED50add). Where it was established that ED50mix<ED50add for a specific fixed-ratio, then that composition ratio was superadditive. Both the quantities ED50mix and ED50add were random variables; ED50mix was estimated from the dose-response curve for a specific fixed-ratio; ED50add was obtained by combining the ED50 estimates for the two drugs under additivity. ED50mix was then compared to ED50add via a Student's t-test.
The interaction between tramadol and acetaminophen was determined at precise dosage ratios of tramadol hydrochloride and acetaminophen. Multiple (typically 4-6) coded doses of each selected combination were studied for analgesic effectiveness after 30 minutes using an experimental design which permitted the complete randomization of the separate dosage forms tested.
In FIG. 1, the diagonal line joining the ED50 values of the two drugs given separately represents the simple additivity of effects at different component ratios. The dotted lines adjacent to the diagonal line define the 95% confidence interval. ED50 values falling under the curve (between the line and the origin) indicate superadditivity, i.e., unexpected enhancement of effects. The diagonal dashed lines radiating from the origin represent the dose ratios of APAP to tramadol hydrochloride used in mice receiving the combined drug dosages. The bars through the ED50 points for the tramadol and APAP composition represent the 95% confidence intervals of the ED50 value.

COc1cccc([C@@]2(O)CCCC[C@@H]2CN(C)C)c1 (racemic) [tramadol only, (1RS, 2RS)-[(dimethylamino)-methyl]-1-(3-methoxy-phenyl)cyclohexanol]
ED50 (read-out: ED50 30 min (95% CI's) Tramadol): 5.5 mg/kg
analgesia (dose Tramadol 2 + APAP 0 mg/kg, p.o.): 3/15
analgesia (dose Tramadol 3 + APAP 0 mg/kg, p.o.): 4/15
analgesia (dose Tramadol 4 + APAP 0 mg/kg, p.o.): 14/45
analgesia (dose Tramadol 6 + APAP 0 mg/kg, p.o.): 20/45
analgesia (dose Tramadol 8 + APAP 0 mg/kg, p.o.): 40/60
analgesia (dose Tramadol 10 + APAP 0 mg/kg, p.o.): 15/15
analgesia (dose Tramadol 16 + APAP 0 mg/kg, p.o.): 14/15

CC(=O)Nc1ccc(O)cc1 [APAP only, acetaminophen]
ED50 (APAP component of the ED50, p.o., 30 min after dosing, read-out: ED50 30 min (95% CI's) APAP): 164 mg/kg
analgesia (dose Tramadol 0 + APAP 30 mg/kg, p.o.): 2/15
analgesia (dose Tramadol 0 + APAP 40 mg/kg, p.o.): 12/43
analgesia (dose Tramadol 0 + APAP 50 mg/kg, p.o.): 1/15
analgesia (dose Tramadol 0 + APAP 60 mg/kg, p.o.): 8/30
analgesia (dose Tramadol 0 + APAP 80 mg/kg, p.o.): 23/60
analgesia (dose Tramadol 0 + APAP 100 mg/kg, p.o.): 13/30
analgesia (dose Tramadol 0 + APAP 120 mg/kg, p.o.): 13/30
analgesia (dose Tramadol 0 + APAP 160 mg/kg, p.o.): 10/30
analgesia (dose Tramadol 0 + APAP 200 mg/kg, p.o.): 13/25
analgesia (dose Tramadol 0 + APAP 240 mg/kg, p.o.): 14/25
analgesia (dose Tramadol 0 + APAP 400 mg/kg, p.o.): 12/15
analgesia (dose Tramadol 0 + APAP 800 mg/kg, p.o.): 13/15
